In ChEMBL document CHEMBL4483862, “Open-source discovery of chemical leads for next-generation chemoprotective antimalarials” (2018):

System: Plasmodium berghei
Test: Luciferase/luciferin-expressing antifolate-resistant parasites were used to infect a culture of HepG2 cells that were pre-incubated with compounds. Infected hepatocytes emit light due to the luciferase reaction. Assay results are presented as the percent inhibition of light emission compared to control. […]
Type: functional
Settings: sporozoite; for IC90: read-out: LUCIFERASE INFECTION ASSAY - IC90

SMILES	IC90 [µM]	further results
CCC(=O)Nc1nc(C)c(-c2csc(Nc3ccc(N(C)C)cc3)n2)s1	> 8.52	IC50 (FFLUC_HILL_SLOPE 5.2, FFLUC_R_SQUARED 0.393, read-out: LUCIFERASE INFECTION ASSAY - IC50): > 8.52 µM
Cc1ccc(S(=O)(=O)N(Cc2ccccc2Cl)c2ccc(Br)cc2C(=O)c2ccccc2)cc1	> 5.95	IC50 (FFLUC_HILL_SLOPE 4.75, FFLUC_R_SQUARED 0.66, PBLUC_HILL_SLOPE 8.83, PBLUC_R_SQUARED 0.156, read-out: LUCIFERASE INFECTION ASSAY - IC50): 5.41 µM
Clc1cccc(-c2cn3c(-c4ccncc4)cnc3cn2)c1	> 10.8	IC50 (FFLUC_HILL_SLOPE 4.91, FFLUC_R_SQUARED 0.112, HEPG2TOX_HILL_SLOPE 0.251, HEPG2TOX_R_SQUARED 0.199, PBLUC_HILL_SLOPE 3.54, PBLUC_R_SQUARED 0.544, read-out: LUCIFERASE INFECTION ASSAY - IC50): 6.34 µM
COc1cc(/C=C(/C(=O)Nc2ccc(Cl)cc2)c2nc3ccccc3s2)ccc1OC(F)F	3.33	IC50 (FFLUC_HILL_SLOPE 4.93, FFLUC_R_SQUARED 0.384, HEPG2TOX_HILL_SLOPE 14.8, HEPG2TOX_R_SQUARED 0.909, PBLUC_HILL_SLOPE 5.39, PBLUC_R_SQUARED 0.576, read-out: LUCIFERASE INFECTION ASSAY - IC50): 2.21 µM
COCCNc1nc2cnc(-c3ccc4ccccc4c3)cc2n1C	> 10	IC50 (FFLUC_HILL_SLOPE 5.54, FFLUC_R_SQUARED 0.844, PBLUC_HILL_SLOPE 0.43, PBLUC_R_SQUARED 0.895, read-out: LUCIFERASE INFECTION ASSAY - IC50): 0.13 µM
Cc1ccc(-c2oc(NC(=O)c3cncc(Br)c3)c(C#N)c2-c2ccc(C)cc2)cc1	9.82	IC50 (FFLUC_HILL_SLOPE 4.83, FFLUC_R_SQUARED 0.721, HEPG2TOX_HILL_SLOPE 9.42, HEPG2TOX_R_SQUARED 0.907, PBLUC_HILL_SLOPE 30.3, PBLUC_R_SQUARED 0.463, read-out: LUCIFERASE INFECTION ASSAY - IC50): 9.13 µM
O=C(CSc1ccccc1C(=O)N(Cc1ccco1)Cc1cccs1)NC12CC3CC(CC(C3)C1)C2	7.68	IC50 (FFLUC_HILL_SLOPE 5.22, FFLUC_R_SQUARED 0.381, HEPG2TOX_HILL_SLOPE 38.7, HEPG2TOX_R_SQUARED 0.813, PBLUC_HILL_SLOPE 3.47, PBLUC_R_SQUARED 0.525, read-out: LUCIFERASE INFECTION ASSAY - IC50): 4.08 µM
COC(=O)c1cc(CSc2nnc(-c3ccc(C)cc3)c(-c3ccc(C)cc3)n2)oc1C	> 10	IC50 (FFLUC_HILL_SLOPE 4.52, FFLUC_R_SQUARED 0.588, read-out: LUCIFERASE INFECTION ASSAY - IC50): > 10 µM
FC(F)(F)c1cnc(-n2cccc2/C=N/Nc2nc3ccccc3nc2C(F)(F)F)c(Cl)c1	> 6.81	IC50 (FFLUC_HILL_SLOPE 4.66, FFLUC_R_SQUARED 0.46, HEPG2TOX_HILL_SLOPE 16.5, HEPG2TOX_R_SQUARED 0.459, PBLUC_HILL_SLOPE 3.99, PBLUC_R_SQUARED 0.83, read-out: LUCIFERASE INFECTION ASSAY - IC50): 4.16 µM
NS(=O)(=O)c1ccc(CCNc2nc(-c3ccc(Cl)cc3)nc3sc4c(c23)CCC4)cc1	> 10	IC50 (FFLUC_HILL_SLOPE 5.22, FFLUC_R_SQUARED 0.196, PBLUC_HILL_SLOPE 2.11, PBLUC_R_SQUARED 0.629, read-out: LUCIFERASE INFECTION ASSAY - IC50): 7.12 µM
COC(=O)c1ccccc1N1C(=O)C=CC1=O	5.93	IC50 (FFLUC_HILL_SLOPE 4.6, FFLUC_R_SQUARED 0.0459, HEPG2TOX_HILL_SLOPE 7.42, HEPG2TOX_R_SQUARED 0.806, PBLUC_HILL_SLOPE 7.78, PBLUC_R_SQUARED 0.766, read-out: LUCIFERASE INFECTION ASSAY - IC50): 4.47 µM
CNc1nc2cnc(-c3cccc(Oc4ccccc4)c3)cc2n1-c1cccc(F)c1	> 10	IC50 (FFLUC_HILL_SLOPE 5.28, FFLUC_R_SQUARED 0.776, PBLUC_HILL_SLOPE 4.98, PBLUC_R_SQUARED 0.188, read-out: LUCIFERASE INFECTION ASSAY - IC50): 8.03 µM
O=C(Nc1cc(S(=O)(=O)N2CCCC2)ccc1O)c1sccc1-n1cccc1	3.25	IC50 (FFLUC_HILL_SLOPE 4.58, FFLUC_R_SQUARED 0.706, PBLUC_HILL_SLOPE 1.57, PBLUC_R_SQUARED 0.879, read-out: LUCIFERASE INFECTION ASSAY - IC50): 0.802 µM
Cc1onc(-c2c(Cl)cccc2Cl)c1C(=O)Nc1ccccc1SCc1noc(-c2cccs2)n1	> 6.07	IC50 (FFLUC_HILL_SLOPE 4.47, FFLUC_R_SQUARED 0.309, read-out: LUCIFERASE INFECTION ASSAY - IC50): > 6.07 µM
O=[N+]([O-])c1cc2c(c(Cn3c(COc4ccc(Cl)cc4Cl)nc4ccccc43)c1)OCOC2	7.34	IC50 (FFLUC_HILL_SLOPE 4.75, FFLUC_R_SQUARED 0.0792, PBLUC_HILL_SLOPE 3.98, PBLUC_R_SQUARED 0.767, read-out: LUCIFERASE INFECTION ASSAY - IC50): 4.23 µM
N#C/C(=C\Nc1cc(C(F)(F)F)cc(C(F)(F)F)c1)S(=O)(=O)c1ccccc1Cl	> 7.26	IC50 (FFLUC_HILL_SLOPE 5.48, FFLUC_R_SQUARED 0.621, HEPG2TOX_HILL_SLOPE 2.18, HEPG2TOX_R_SQUARED 0.937, read-out: LUCIFERASE INFECTION ASSAY - IC50): > 7.26 µM
CCCOc1cc2cc(C(=O)c3ccccc3O)cnc2cc1OCCC	4.78	IC50 (FFLUC_HILL_SLOPE 5.56, FFLUC_R_SQUARED 0.125, HEPG2TOX_HILL_SLOPE 2.18, HEPG2TOX_R_SQUARED 0.51, PBLUC_HILL_SLOPE 8.83, PBLUC_R_SQUARED 0.576, read-out: LUCIFERASE INFECTION ASSAY - IC50): 3.73 µM
Cc1noc(C)c1NC(=O)Nc1cc(C(F)(F)F)cc(C(F)(F)F)c1	> 8.99	IC50 (FFLUC_HILL_SLOPE 4.67, FFLUC_R_SQUARED 0.129, HEPG2TOX_HILL_SLOPE 8.81, HEPG2TOX_R_SQUARED 0.655, PBLUC_HILL_SLOPE 1.82, PBLUC_R_SQUARED 0.142, read-out: LUCIFERASE INFECTION ASSAY - IC50): 4.81 µM
CC(C)(C)c1ccc(C2NCC(c3ccc(Cl)cc3Cl)c3c2[nH]c2ccccc32)cc1 (stereo not drawn)	4.09	IC50 (FFLUC_HILL_SLOPE 4.79, FFLUC_R_SQUARED 0.608, HEPG2TOX_HILL_SLOPE 0.722, HEPG2TOX_R_SQUARED 0.602, PBLUC_HILL_SLOPE 10.9, PBLUC_R_SQUARED 0.683, read-out: LUCIFERASE INFECTION ASSAY - IC50): 3.34 µM
COc1ccc(CCNc2nc(CN3CCCC3)nc3sc(C)c(C)c23)cc1	> 10	IC50 (FFLUC_HILL_SLOPE 4.5, FFLUC_R_SQUARED 0.668, PBLUC_HILL_SLOPE 16.9, PBLUC_R_SQUARED 0.0613, read-out: LUCIFERASE INFECTION ASSAY - IC50): 9.78 µM
Cc1cc(C(C)(C)C)cc(S(=O)(=O)Nc2ccc(C(=O)OC(C)C(=O)c3cc(C)n(-c4ccccc4)c3C)cc2)c1C (stereo not drawn)	> 10	IC50 (FFLUC_HILL_SLOPE 4.56, FFLUC_R_SQUARED 0.633, PBLUC_HILL_SLOPE 9.36, PBLUC_R_SQUARED 0.441, read-out: LUCIFERASE INFECTION ASSAY - IC50): 8.93 µM
CSc1sc(C#N)c2c1/C(=N/OC(=O)c1ccc(Cl)cc1)CCC2	> 8.76	IC50 (FFLUC_HILL_SLOPE 4.66, FFLUC_R_SQUARED 0.795, read-out: LUCIFERASE INFECTION ASSAY - IC50): > 8.76 µM
O=S(=O)(Nc1ccc(OC(F)(F)F)cc1)c1ccc(S(=O)(=O)c2ncc(C(F)(F)F)cc2Cl)s1	> 5.82	IC50 (FFLUC_HILL_SLOPE 4.61, FFLUC_R_SQUARED 0.168, read-out: LUCIFERASE INFECTION ASSAY - IC50): > 5.82 µM
COc1ccc2c(c1)c(CC(=O)Nc1cccc(S(=O)(=O)N3CCCC3)c1)c(C)n2C(=O)c1ccc(Cl)cc1	> 10	IC50 (FFLUC_HILL_SLOPE 4.55, FFLUC_R_SQUARED 0.0972, read-out: LUCIFERASE INFECTION ASSAY - IC50): > 10 µM
CC(C)NC(=O)c1c(NC(=O)c2ccc(C(F)(F)F)cc2)nc2ccccn12	1.46	IC50 (FFLUC_HILL_SLOPE 4.65, FFLUC_R_SQUARED 0.42, HEPG2TOX_HILL_SLOPE 0.706, HEPG2TOX_R_SQUARED 0.931, PBLUC_HILL_SLOPE 2.98, PBLUC_R_SQUARED 0.635, read-out: LUCIFERASE INFECTION ASSAY - IC50): 0.698 µM
Cc1cccc(NC(=O)CN2C(=O)/C(=C(/C#N)c3nc4ccccc4[nH]3)c3ccccc32)c1	> 10	IC50 (FFLUC_HILL_SLOPE 4.46, FFLUC_R_SQUARED 0.474, HEPG2TOX_HILL_SLOPE 6.44, HEPG2TOX_R_SQUARED 0.532, PBLUC_HILL_SLOPE 2.02, PBLUC_R_SQUARED 0.59, read-out: LUCIFERASE INFECTION ASSAY - IC50): 5.68 µM
Cc1cc(O)c(C(=O)/C=C/c2cn(-c3ccccc3C)nc2-c2ccccc2)c(=O)o1	> 10	IC50 (FFLUC_HILL_SLOPE 4.53, FFLUC_R_SQUARED 0.503, PBLUC_HILL_SLOPE 0.894, PBLUC_R_SQUARED 0.655, read-out: LUCIFERASE INFECTION ASSAY - IC50): 6.09 µM
Cc1c(-c2nc3ccccc3[nH]2)c(NC(=O)C(C)C)n(Cc2ccccc2)c1C	5.02	IC50 (FFLUC_HILL_SLOPE 4.87, FFLUC_R_SQUARED 0.116, PBLUC_HILL_SLOPE 2.35, PBLUC_R_SQUARED 0.356, read-out: LUCIFERASE INFECTION ASSAY - IC50): 1.97 µM
Cc1ccc(-c2nc(NC(=O)c3ccc4c(=O)[nH]c(=O)n(C)c4n3)sc2-c2ccc(C)cc2)cc1	4.58	IC50 (FFLUC_HILL_SLOPE 5.14, FFLUC_R_SQUARED 0.303, PBLUC_HILL_SLOPE 8.87, PBLUC_R_SQUARED 0.194, read-out: LUCIFERASE INFECTION ASSAY - IC50): 3.57 µM
